Results as given in PubChem BioAssay (NCI).
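Test compounds were applied to cells in 96-well plates for 48 hours at 5 doses. At the GI50, growth is halved. TGI marks complete inhibition of growth.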

What was measured:
Assay in all cases: inhibition of tumour cell growth, NCI panel, 48 h
HCT-116 colon = system: HCT-116 colon
A549 NSCLC = system: A549 NSCLC
LOX IMVI melanoma = system: LOX IMVI melanoma
MOLT-4 leukemia = system: MOLT-4 leukemia
SK-MEL-5 melanoma = system: SK-MEL-5 melanoma
NCI-H460 lung = system: NCI-H460 lung
IGROV1 ovarian = system: IGROV1 ovarian
T-47D breast = system: T-47D breast
SNB-75 CNS = system: SNB-75 CNS
SK-OV-3 ovarian = system: SK-OV-3 ovarian
SK-MEL-28 melanoma = system: SK-MEL-28 melanoma
CAKI-1 renal = system: CAKI-1 renal
CCRF-CEM leukemia = system: CCRF-CEM leukemia
OVCAR-3 ovarian = system: OVCAR-3 ovarian
MCF7 breast = system: MCF7 breast
OVCAR-4 ovarian = system: OVCAR-4 ovarian
U251 CNS = system: U251 CNS
UACC-257 melanoma = system: UACC-257 melanoma
OVCAR-5 ovarian = system: OVCAR-5 ovarian
HL-60(TB) leukemia = system: HL-60(TB) leukemia
RPMI-8226 leukemia = system: RPMI-8226 leukemia
ACHN renal = system: ACHN renal
SK-MEL-2 melanoma = system: SK-MEL-2 melanoma
M14 melanoma = system: M14 melanoma
BT-549 breast = system: BT-549 breast
PC-3 prostate = system: PC-3 prostate
K-562 leukemia = system: K-562 leukemia
HCT-15 colon = system: HCT-15 colon

c1ccc(CC(Cc2ccccc2)C2=NCCCN2)cc1
TGI (HCT-116 colon): 17.3 µM | GI50 (A549 NSCLC): 3.42 µM | TGI (A549 NSCLC): > 100 µM | GI50 (LOX IMVI melanoma): 3.71 µM | TGI (LOX IMVI melanoma): 23.6 µM | GI50 (MOLT-4 leukemia): 3.56 µM | TGI (MOLT-4 leukemia): 23.2 µM | GI50 (SK-MEL-5 melanoma): 2730 nM | TGI (SK-MEL-5 melanoma): 9.52 µM | GI50 (NCI-H460 lung): 3.36 µM | TGI (NCI-H460 lung): 21.9 µM | GI50 (IGROV1 ovarian): 4.2 µM | TGI (IGROV1 ovarian): > 100 µM | GI50 (T-47D breast): 30.8 µM | TGI (T-47D breast): > 100 µM | GI50 (SNB-75 CNS): 7.8 µM | TGI (SNB-75 CNS): > 100 µM | GI50 (SK-OV-3 ovarian): 2100 nM | TGI (SK-OV-3 ovarian): 6.44 µM | GI50 (SK-MEL-28 melanoma): 6.4 µM | TGI (SK-MEL-28 melanoma): > 100 µM | GI50 (CAKI-1 renal): 6.39 µM | TGI (CAKI-1 renal): > 100 µM | GI50 (CCRF-CEM leukemia): 3.12 µM | TGI (CCRF-CEM leukemia): 93.3 µM | GI50 (OVCAR-3 ovarian): 2420 nM | TGI (OVCAR-3 ovarian): 4.97 µM | GI50 (MCF7 breast): 3.57 µM | TGI (MCF7 breast): > 100 µM | GI50 (OVCAR-4 ovarian): 3.93 µM | TGI (OVCAR-4 ovarian): > 100 µM | GI50 (U251 CNS): 3.38 µM | TGI (U251 CNS): > 100 µM | GI50 (UACC-257 melanoma): 17 µM | TGI (UACC-257 melanoma): > 100 µM | GI50 (OVCAR-5 ovarian): 5.95 µM | TGI (OVCAR-5 ovarian): > 100 µM | GI50 (HL-60(TB) leukemia): 2380 nM | TGI (HL-60(TB) leukemia): 6.41 µM | GI50 (RPMI-8226 leukemia): 3.62 µM | TGI (RPMI-8226 leukemia): 42.3 µM | GI50 (ACHN renal): 7.95 µM | TGI (ACHN renal): > 100 µM | GI50 (SK-MEL-2 melanoma): 2660 nM | TGI (SK-MEL-2 melanoma): 7.91 µM | GI50 (M14 melanoma): 3.17 µM | TGI (M14 melanoma): > 100 µM | GI50 (BT-549 breast): 3.77 µM | TGI (BT-549 breast): 70.9 µM | GI50 (PC-3 prostate): 3.87 µM | TGI (PC-3 prostate): > 100 µM | GI50 (K-562 leukemia): 4.04 µM | TGI (K-562 leukemia): > 100 µM | GI50 (HCT-15 colon): 3.44 µM | TGI (HCT-15 colon): > 100 µM
